Legend:
HepG2 = experiment: Hepatocyte toxicity; assay type: cell-based, human; settings: for Hepatocyte Toxicity: HepG2; for Liver Stage / Hepatocyte Toxicity: toxicity fold shift for the liver stage (hepatocyte toxicity vs liver stage EC50); for EC50 fold shift compared to asexual stage: Hepatocyte Toxicity: hepatocyte toxicity / 3D7 EC50
From the text: As drugs that eliminate multiple stages of the parasite lifecycle will be critical components in global efforts to eliminate malaria, we were interested in knowing whether the compounds in our study had additional activities against either the liver and/or transmission stages of the parasite lifecycle. To determine this, we first evaluated the compounds in additional phenotypic assays. The first assay was a P. berghei hepatocyte invasion and development assay, which predicts causal prophylactic activity. Hepatocyte toxicity was additionally tested to identify false-positive activity in the liver stage due to host-cell toxicity. Assays were executed in duplicate using a 12-point EC50 curve at starting concentrations of 5 μM or 50 μM (Supplementary Table 1).
Liver-stage activity was determined by pretreating hepatic human cells (HepG2) for 2 h with compound in 1,536-well plates infected with freshly dissected P. berghei sporozoites. After 48 h of incubation, the viability of P. berghei exoerythrocytic forms was measured by luminescence reaction light output using BrightGlo (Promega). Varying levels of compound concentration were used (5 μM or 50 μM) due to the stock concentration supplied.

hsp90 (D88Y, parent Dd2) = experiment: Cross-resistance EC50 assay, hsp90; assay type: cell-based; settings: Plasmodium falciparum, SYBR green 72 hour assay, synchronized parasites, 384-well format
From the text: To evaluate potential overlapping activity against known antimalarial drug targets, we performed dose-response studies with each compound against our assembled set of drug-resistant lines and their corresponding parents, in an asexual blood stage proliferation assay (Table 1). Comparisons were made to the drug-sensitive strain 3D7 when a parent was unavailable (TM90C2A, W2 and Dd2). As laboratories conducted EC50 assays with different strains and protocols, all comparisons were made between assays from the same laboratory and under the same assay conditions. Compounds displaying >5-fold EC50 shifts relative to the parent or sensitive strain were flagged as having potentially non-novel targets. Average fold shifts per strain ranged from 0.82 to 2.34, with a median of 1.23 indicating there was not common resistance to any one resistant clone. No resistance patterns were observed when classifying the compounds based on chemical structure, but this was not surprising given the diversity of compounds chosen. On the other hand, given that these confirmed compounds were derived from larger unconfirmed hit lists to which some filtration criteria may have been applied (for example, elimination of obvious dihydrofolate reductase inhibitors[32]), some[10][11][12][13] pre-existing bias may exist in the set. […]
Alternatively, a SYBR Green-based proliferation approach was used for the 72-h assay, as previously described. Briefly, a culture of either synchronized or asynchronous parasitized RBCs (0.3% parasitemia and 4% haematocrit) in screening medium (identical to supplemented medium above except no serum was added) was exposed to serial drug dilutions. Plates were incubated at 37 °C and gassed with 93% N2, 4% CO2 and 3% O2 for 72 h. Following incubation, 10 × SYBR Green I (Invitrogen; supplied in 10,000 × concentration) in lysis buffer ([…], 5 mM EDTA, 0.16% Saponin wt per vol and 1.6% Triton X vol per vol) was added to the wells and the plates were incubated overnight at room temperature before plate reading. EC50 assays were repeated three times, taking the average EC50 value from each assay set, and removing any outliers using a single iteration of Grubbs' test, eliminating values with z-scores above the critical z-value (α=0.05). The raw EC50 values for synchronized parasites assayed in a 384-well format are listed in Supplementary Data 4. The raw EC50 values for asynchronous parasites assayed in a 96 or 1536-well format are listed in Supplementary Data 5.
EC50 values for each strain were compared with those of the corresponding parent strain to determine fold-shift changes and identify resistance. To minimize the cause variance between assays, all comparisons were conducted between strains assayed under identical conditions. A one-way ANOVA followed by a Dunnet's post-test was conducted in GraphPad Prism to identify significant changes between the parent and resistant strain.

Row | Compound | Hepatocyte Toxicity (HepG2) [µM] | Liver Stage / Hepatocyte Toxicity (HepG2) | EC50 (hsp90 (D88Y, parent Dd2); strain HSP90 (Dd2 parent)) [nM] | EC50 fold shift compared to asexual stage: Hepatocyte Toxicity (HepG2) | EC50 (hsp90 (D88Y, parent Dd2); DD2, HSP90 strain) [nM]
1 | Cl.c1ccc2c(NCCCCCCNc3c4c(nc5ccccc35)CCCC4)c3c(nc2c1)CCCC3 [MMV019555] | 4.811 | 15.06 | 198 |  | 
2 | COc1ccc(NC(=O)N2CCCCN3[C@H](CN)[C@H](c4ccc(C#Cc5ccccc5)cc4)[C@@H]3C2)cc1 [BRD1095] | > 50 | > 605 |  | > 1250 | 17
3 | Cc1ccc(S(=O)(=O)n2cc(-c3ccnc(N)c3)c3cc(Br)cnc32)cc1 [MMV024114] | 9.39 | 1.58 | 831 | 35.43 | 
4 | CNCc1ccc2nc(-c3coc(Cc4cc(Cl)ccc4OCC(C)C)n3)[nH]c2c1.Cl.Cl [MMV026596] | 13.42 | 2.07 | 373 | 38.79 | 
5 | Cc1cc(Nc2ccc(OCc3ccccc3)cc2)nc2cc(O)ccc12 [MMV007181] | 7.952 | 1.66 | 120 | 22.98 | 
6 | OC(CNC1CCCCC1)Cn1c2ccccc2c2ccccc21 (stereo not shown) [MMV009063] | > 5 |  | 286 | > 6.3 | 
7 | O=C(NC(c1ccccc1)c1ccc2cccnc2c1O)c1ccccc1 (stereo not shown) [MMV666080] | 1.309 | 2.82 | 645 | 1.55 | 
8 | CN(C)CCCNCc1ccc(-c2ccc(Cl)c(Cl)c2)o1 [MMV673964] | 19.83 | 2.21 |  | 32.67 | 322
9 | COc1ccccc1CNC(=O)CCn1c(=O)[nH]c2ccsc2c1=O [MMV019066] | > 5 | > 15 | 15 | > 3 | 
10 | CC(C)(C)OC(=O)N1CCN(c2ccccc2NC(=O)c2cccc(C(F)(F)F)c2Oc2ccc(F)cc2)CC1 [MMV030666] | 10.17 | 16.60 | 321 | 20.93 | 
11 | COc1ccc(N2CCN(C(CNC(=O)C3CCCCC3)c3ccc4c(c3)OCO4)CC2)cc1 (stereo not shown) [MMV019662] | > 50 | > 2.65 | 790 | > 147 | 
12 | Cc1nc2ccc3ccc(CNc4ccc(C(=O)CC(CCC(=O)O)C(=O)O)cc4)cc3c2c(=O)[nH]1.Cl (stereo not shown) [MMV027634] | 11.61 |  | 39 | 504.78 | 
13 | CCCCCCCN(Cc1ccc(OC(C)(C)C(=O)OCC)cc1)C(=O)Nc1ccc(Cl)cc1OCC [MMV021735] | > 50 | > 18 | 275 | > 130 | 

From PMC4912613, “A broad analysis of resistance development in the malaria parasite” (Nature Communications, 2016)
